Drawing on patent publication US11485731B2, “Compounds and methods useful in the treatment of a PRMT5-mediated disorder” (ARGONAUT THERAPEUTICS LIMITED, priority 2017, dated 2022), this text covers IC50 for 34 compounds.

For the test, the target named is human PRMT5/MEP50 (Homo sapiens (Human), UniProt O14744). Kind of test: PRMT5 chemiluminescent assay. It is filed as biochemical. The conditions noted are these: human PRMT5/MEP50 expressed in HEK293 cells; biotinylated histone peptides; Histone H4 monomethyl R3 antibody; chemiluminescent readout. The procedure, abridged: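 HEK293-expressed PRMT5/MEP50, diluted to 5 ng/µL in assay buffer, reacted 60 min with rotation on plate-bound biotinylated histone peptides. Product was detected with anti-histone H4 R3 monomethyl antibody (60 min), then HRP secondary (30 min) and chemiluminescent substrate. IC50 values came from the chemiluminescence signal.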
human PRMT5/MEP50, sequence (O14744 whole entry): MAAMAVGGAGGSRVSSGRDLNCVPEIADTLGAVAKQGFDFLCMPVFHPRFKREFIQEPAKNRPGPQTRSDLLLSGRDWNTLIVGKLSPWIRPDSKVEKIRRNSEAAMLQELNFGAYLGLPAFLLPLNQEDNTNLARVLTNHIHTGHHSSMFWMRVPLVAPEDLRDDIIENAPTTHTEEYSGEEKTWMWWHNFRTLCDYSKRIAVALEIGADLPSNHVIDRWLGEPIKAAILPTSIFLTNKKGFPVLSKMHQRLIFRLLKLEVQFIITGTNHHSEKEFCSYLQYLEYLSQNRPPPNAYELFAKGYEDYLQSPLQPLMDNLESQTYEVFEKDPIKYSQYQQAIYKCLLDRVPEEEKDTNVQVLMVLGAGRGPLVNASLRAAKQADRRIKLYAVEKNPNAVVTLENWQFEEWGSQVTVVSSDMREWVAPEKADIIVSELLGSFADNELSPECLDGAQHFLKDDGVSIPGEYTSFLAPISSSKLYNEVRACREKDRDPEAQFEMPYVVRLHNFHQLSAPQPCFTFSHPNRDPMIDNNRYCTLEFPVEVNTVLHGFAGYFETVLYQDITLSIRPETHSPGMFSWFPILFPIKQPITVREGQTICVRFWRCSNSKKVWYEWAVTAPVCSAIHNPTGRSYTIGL
human PRMT5/MEP50, sequence (Q9BQA1 whole entry partner): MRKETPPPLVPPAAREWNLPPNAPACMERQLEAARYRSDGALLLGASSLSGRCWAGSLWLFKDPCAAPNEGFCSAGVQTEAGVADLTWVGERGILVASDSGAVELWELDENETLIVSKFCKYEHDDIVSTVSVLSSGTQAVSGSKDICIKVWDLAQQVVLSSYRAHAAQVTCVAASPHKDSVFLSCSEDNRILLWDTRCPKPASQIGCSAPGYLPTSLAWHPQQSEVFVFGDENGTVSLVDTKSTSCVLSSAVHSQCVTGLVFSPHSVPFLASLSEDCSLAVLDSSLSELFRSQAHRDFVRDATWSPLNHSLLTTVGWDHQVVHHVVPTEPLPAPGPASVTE
Take `O=C(NC[C@H](O)CN1CCc2ccccc2C1)N1CCS(=O)(=O)C(c2ccccc2)C1` (stereo partly drawn) [Example 1CG, N-((S)-3-(3,4-dihydroisoquinolin-2(1H)-yl)-2-hydroxypropyl)-2-phenylthiomorpholine-4-carboxamide 1,1-dioxide]: the half-inhibitory concentration (IC50) was determined as 0.422 µM.

In turn, `CC(=O)N1CCCN(C(=O)NC[C@H](O)CN2CCc3ccccc3C2)CC1` [Example 1AP, (S)-4-acetyl-N-(3-(3,4-dihydroisoquinolin-2(1H)-yl)-2-hydroxypropyl)-1,4-diazepane-1-carboxamide] came in with an IC50 of 0.484 µM.

As to `COC(=O)N1CCCN(C(=O)NC[C@H](O)CN2CCc3ccccc3C2)CC1` [Example 1AS, Methyl (S)-4-((3-(3,4-dihydroisoquinolin-2(1H)-yl)-2-hydroxypropyl)carbamoyl)-1,4-diazepane-1-carboxylate], the midpoint of inhibition, the IC50, lay at 0.112 µM.

For the compound `O=C(NCC(O)CN1CCc2ccccc2C1)N1CCCCCC1` (stereo not shown) [Example 1N, N-[2-hydroxy-3-(1,2,3,4-tetrahydroisoquinolin-2-yl)propyl]azepane-1-carboxamide], the IC50 was 2.39 µM.

In the case of `O=C(OCC(O)CN1CCc2ccccc2C1)N1CCC(c2ccccc2)C1` (stereo not shown) [Example 3D, 2-hydroxy-3-(1,2,3,4-tetrahydroisoquinolin-2-yl)propyl 3-phenylpyrrolidine-1-carboxylate], the midpoint of inhibition, the IC50, lay at 0.015 µM.

Turning to `O=C(OCC(O)CN1CCc2ccccc2C1)N1CC[S+]([O-])CC1` (stereo not shown) [Example 4M, 3-(3,4-dihydroisoquinolin-2(1H)-yl)-2-hydroxypropyl thiomorpholine-4-carboxylate 1-oxide], the IC50 came to 2.22 µM.

As for `O=C(NC[C@H](O)CN1CCc2ccccc2C1)N1CC[C@@H](c2ccccc2)C1` [Example 1CI, (S)-N-((S)-3-(3,4-dihydroisoquinolin-2(1H)-yl)-2-hydroxypropyl)-3-phenylpyrrolidine-1-carboxamide], 0.027 µM corresponded to half-maximal inhibition (IC50).

Turning to `CN(C)C(=O)C1CCN(C(=O)OC[C@H](O)CN2CCc3ccccc3C2)CC1` [Example 4O, (R)-3-(3,4-dihydroisoquinolin-2(1H)-yl)-2-hydroxypropyl 4-(dimethylcarbamoyl)piperidine-1-carboxylate], the IC50 amounted to 2.71 µM.

Turning to `O=C(NC[C@H](O)CN1CCc2ccccc2C1)N1CCC[C@@H](c2ccccc2)C1` (single isomer, unassigned) [Example 5B, (S)-N-((S)-3-(3,4-dihydroisoquinolin-2(1H)-yl)-2-hydroxypropyl)-3-phenylpiperidine-1-carboxamide or (R)-N-((S)-3-(3,4-dihydroisoquinolin-2(1H)-yl)-2-hydroxypropyl)-3-phenylpiperidine-1-carboxamide], the concentration for half-maximal inhibition (IC50) is 0.599 µM.

`O=C(NC[C@H](O)CN1CCc2ccccc2C1)N1CCCc2ccccc21` [Example 1AJ, (S)-N-(3-(3,4-dihydroisoquinolin-2(1H)-yl)-2-hydroxypropyl)-3,4-dihydroquinoline-1(2H)-carboxamide]: the half-inhibitory concentration (IC50) stood at 0.08 µM.

In turn, `O=C(NCC(O)CN1CCc2ccccc2C1)N1CCCCc2ccccc21` (stereo not shown) [Example 1J, N-[2-hydroxy-3-(1,2,3,4-tetrahydroisoquinolin-2-yl)propyl]-2,3,4,5-tetrahydro-1H-1-benzazepine-1-carboxamide] yielded an IC50 of 0.32 µM.

`O=C(NC[C@H](O)CN1CCc2ccccc2C1)N1CCCS(=O)(=O)C(c2ccccc2)C1` (stereo partly drawn) [Example 1BO, N-((S)-3-(3,4-dihydroisoquinolin-2(1H)-yl)-2-hydroxypropyl)-2-phenyl-1,4-thiazepane-4-carboxamide 1,1-dioxide] returned an IC50 of 1.82 µM.

With `O=C(NCC(O)CN1CCc2ccccc2C1)N1CCC(C(=O)N2C3CCC2COC3)CC1` (stereo not shown) [Example 1R, 4-(3-oxa-8-azabicyclo[3.2.1]octane-8-carbonyl)-N-(3-(3,4-dihydroisoquinolin-2(1H)-yl)-2-hydroxypropyl)piperidine-1-carboxamide], the IC50 turned out to be 0.011 µM.

For `O=C(OC[C@H](O)CN1CCc2ccccc2C1)N1CCC(C(=O)N2C3CCC2COC3)CC1` [Example 4Q, (R)-3-(3,4-dihydroisoquinolin-2(1H)-yl)-2-hydroxypropyl 4-(3-oxa-8-azabicyclo[3.2.1]octane-8-carbonyl)piperidine-1-carboxylate], the half-maximal inhibitory concentration (IC50) is 0.16 µM.

`O=C(NC[C@H](O)CN1CCc2ccccc2C1)N1CCCSC(c2ccccc2)C1` (stereo partly drawn) [Example 1BN, N-((S)-3-(3,4-dihydroisoquinolin-2(1H)-yl)-2-hydroxypropyl)-2-phenyl-1,4-thiazepane-4-carboxamide]: half-maximal inhibition (IC50) required 0.104 µM.

Consider `O=C(OCC(O)CN1CCc2sccc2C1)N1CCc2ccccc2C1` (stereo not shown) [Example 4AA, 3-(6,7-dihydrothieno[3,2-c]pyridin-5(4H)-yl)-2-hydroxypropyl 3,4-dihydroisoquinoline-2(1H)-carboxylate], for which the IC50 came to 0.046 µM. Against the preceding compound, the IC50 is about 2.3-fold lower.

Take `O=C(OCC(O)CN1CCc2ccccc2C1)N1CCCCC1` (stereo not shown) [Example 3B, 2-hydroxy-3-(1,2,3,4-tetrahydroisoquinolin-2-yl)propyl piperidine-1-carboxylate]: inhibition was half-maximal at 0.613 µM (IC50).

On to `O=C(OC[C@@H](O)CN1CCc2ccccc2C1)N1CCC(c2ccccc2)C1` (stereo partly drawn) [Example 4F, (S)-3-(3,4-dihydroisoquinolin-2(1H)-yl)-2-hydroxypropyl 3-phenylpyrrolidine-1-carboxylate], for which the IC50 was determined as 0.049 µM.

In the case of `O=C(OCC(O)CN1CCc2ccsc2C1)N1CCCc2ccccc21` (stereo not shown) [Example 4Z, 3-(4,7-dihydrothieno[2,3-c]pyridin-6(5H)-yl)-2-hydroxypropyl 3,4-dihydroquinoline-1(2H)-carboxylate], half-maximal inhibition (IC50) was put at 0.448 µM.

`O=C(NCC(O)CN1CCc2ccccc2C1)N1CCN(Cc2ccccc2)CC1` (stereo not shown) [Example 1D, 4-benzyl-N-[2-hydroxy-3-(1,2,3,4-tetrahydroisoquinolin-2-yl)propyl]piperazine-1-carboxamide] gave an IC50 of 1.87 µM. Compared with the last compound, the IC50 is about 4.2-fold higher.

As to `O=C(OC[C@H](O)CN1CCc2ccccc2C1)N1CCC(C(=O)N2CCOCC2)CC1` [Example 4P, (R)-3-(3,4-dihydroisoquinolin-2(1H)-yl)-2-hydroxypropyl 4-(morpholine-4-carbonyl)piperidine-1-carboxylate], the IC50 worked out at 0.225 µM.

`O=C(NCC(O)CN1CCc2ccccc2C1)N1CCCC(c2ccccc2)CC1` (stereo not shown) [Example 1CN, N-(3-(3,4-dihydroisoquinolin-2(1H)-yl)-2-hydroxypropyl)-4-phenylazepane-1-carboxamide] came in with an IC50 of 1.1 µM.

On to `O=C(NC[C@H](O)CN1CCc2ccccc2C1)N1CCC[C@H](C2CCOCC2)C1` (single isomer, unassigned) [Example 5H, (R)-N-((S)-3-(3,4-dihydroisoquinolin-2(1H)-yl)-2-hydroxypropyl)-3-(tetrahydro-2H-pyran-4-yl)piperidine-1-carboxamide compound or (S)-N-((S)-3-(3,4-dihydroisoquinolin-2(1H)-yl)-2-hydroxypropyl)-3-(tetrahydro-2H-pyran-4-yl)piperidine-1-carboxamide], for which the IC50 stood at 0.511 µM.

In the case of `O=C(NCC(O)CN1CCc2ccccc2C1)N1CCC(c2ccccc2)C1` (stereo not shown) [Example 1A, N-(3-(3,4-dihydroisoquinolin-2(1H)-yl)-2-hydroxypropyl)-3-phenylpyrrolidine-1-carboxamide], the IC50 was determined as 0.29 µM.

`O=C(NC[C@H](O)CN1CCc2ccccc2C1)N1CCCC(c2ccc(F)cc2)C1` (stereo partly drawn) [Example 1BU, N-((S)-3-(3,4-dihydroisoquinolin-2(1H)-yl)-2-hydroxypropyl)-3-(4-fluorophenyl)piperidine-1-carboxamide]: half-maximal inhibition (IC50) required 0.012 µM.

With `O=C(NCC(O)CN1CCc2ccsc2C1)N1CCCC(c2ccccc2)C1` (stereo not shown) [Example 1AD, N-(3-(4,7-dihydrothieno[2,3-c]pyridin-6(5H)-yl)-2-hydroxypropyl)-3-phenylpiperidine-1-carboxamide], the IC50 turned out to be 0.652 µM.

In the case of `CC(=O)N1CCCN(C(=O)NCC(O)CN2CCc3ccccc3C2)CC1` (stereo not shown) [Example 1CM, 4-acetyl-N-(3-(3,4-dihydroisoquinolin-2(1H)-yl)-2-hydroxypropyl)-1,4-diazepane-1-carboxamide], inhibition was half-maximal at 0.125 µM (IC50).

`O=C(OCC(O)CN1CCc2ccccc2C1)N1CCCC(Nc2ccncc2)C1` (stereo not shown) [Example 4C, 3-(3,4-dihydroisoquinolin-2(1H)-yl)-2-hydroxypropyl 3-(pyridin-4-ylamino)piperidine-1-carboxylate] had a half-inhibitory concentration (IC50) of 0.025 µM.

Compound `O=C(NC[C@H](O)CN1CCc2ccccc2C1)N1CCC[C@@H](c2ccccc2)C1` [Example 1AN, (S)-N-((S)-3-(3,4-dihydroisoquinolin-2(1H)-yl)-2-hydroxypropyl)-3-phenylpiperidine-1-carboxamide] yielded an IC50 of 0.014 µM.

For the compound `O=C(NC[C@H](O)CN1CCc2ccccc2C1)N1CCSC(c2ccccc2)C1` (stereo partly drawn) [Example 1BJ, N-((S)-3-(3,4-dihydroisoquinolin-2(1H)-yl)-2-hydroxypropyl)-2-phenylthiomorpholine-4-carboxamide], the IC50 was 0.108 µM. Compared with the last compound, the IC50 is about 7.7-fold higher.

`O=C(NC[C@H](O)CN1CCc2ccccc2C1)N1CCC(C(=O)N2CCOCC2)CC1` [Example 1AY, (S)-N-(3-(3,4-dihydroisoquinolin-2(1H)-yl)-2-hydroxypropyl)-4-(morpholine-4-carbonyl)piperidine-1-carboxamide]: the midpoint of inhibition, the IC50, lay at 0.311 µM.

Take `O=C(NC[C@H](O)CN1CCc2ccccc2C1)N1CCCC(n2cccn2)C1` (stereo partly drawn) [Example 1BK, N-((S)-3-(3,4-dihydroisoquinolin-2(1H)-yl)-2-hydroxypropyl)-3-(1H-pyrazol-1-yl)piperidine-1-carboxamide]: half-maximal inhibition (IC50) required 0.396 µM. This IC50 and that of the compound before are within 1.5-fold of each other.

Regarding `O=C(NC[C@H](O)CN1CCc2ccccc2C1)N1CCCN(C(=O)c2ccccc2)CC1` [Example 1AR, (S)-4-benzoyl-N-(3-(3,4-dihydroisoquinolin-2(1H)-yl)-2-hydroxypropyl)-1,4-diazepane-1-carboxamide], inhibition was half-maximal at 0.658 µM (IC50).

On to `O=C(NC[C@H](O)CN1CCc2ccccc2C1)N1CCCC(n2ccnc2)C1` (stereo partly drawn) [Example 1BL, N-((S)-3-(3,4-dihydroisoquinolin-2(1H)-yl)-2-hydroxypropyl)-3-(1H-imidazol-1-yl)piperidine-1-carboxamide], for which the IC50 was determined as 4.44 µM. Against the preceding compound, the IC50 is about 6.7-fold higher.
